Among the data in ChEMBL document CHEMBL3751679, “DNA cleavage at the AP site via β-elimination mediated by the AP site-binding ligands” (Bioorg Med Chem, 2016) are Activity values, retold here.

Calls of active or inactive are those of the source. No cut-off for these calls is given here.

Assay [1] is filed under the species Homo sapiens. Put plainly: Binding affinity to duplex DNA1(AP)/DNA2(C) (unknown origin) assessed as APE1 catalyzed beta-elimination product formation by gel electrophoresis.
The species entered for assay [2] is Homo sapiens. Put plainly: Binding affinity to duplex DNA1(AP)/DNA2(T) (unknown origin) assessed as APE1 catalyzed beta-elimination product formation by gel electrophoresis.
The species named for assay [3] is Homo sapiens. Kind of assay: Binding affinity to duplex DNA1(AP)/DNA2(C) (unknown origin) assessed as beta-elimination product formation at 10 uM pH 7 by gel electrophoresis.
The species named for assay [4] is Homo sapiens. Put plainly: Binding affinity to duplex DNA1(AP)/DNA2(T) (unknown origin) assessed as beta-elimination product formation at 10 uM pH 7 by gel electrophoresis.
The species named for assay [5] is Homo sapiens. Put plainly: Binding affinity to duplex DNA1(AP)/DNA2(G) (unknown origin) assessed as beta-elimination product formation at 10 uM pH 7 by gel electrophoresis.
The species named for assay [6] is Homo sapiens. Kind of assay: Binding affinity to duplex DNA1(AP)/DNA2(A) (unknown origin) assessed as beta-elimination product formation at 10 uM pH 7 by gel electrophoresis.
For assay [7], the species on record is Homo sapiens. Kind of assay: Binding affinity to duplex DNA1(AP)/DNA2(A) (unknown origin) assessed as APE1 catalyzed beta-elimination product formation by gel electrophoresis.
Assay [8] is filed under the species Homo sapiens. Kind of assay: Binding affinity to duplex DNA1(AP)/DNA2(G) (unknown origin) assessed as APE1 catalyzed beta-elimination product formation by gel electrophoresis.
The species named for assay [9] is Homo sapiens. Put plainly: Binding affinity to duplex DNA1(AP)/DNA2(C) (unknown origin) assessed as beta-elimination product formation by HPLC analysis.
The species entered for assay [10] is Homo sapiens. Kind of assay: Binding affinity to duplex DNA1(AP)/DNA2(C) (unknown origin) assessed as beta-elimination product formation after 1 hr at pH 8 by gel electrophoresis.

As for `NCCCNCCCN`, the outcome in assay [1] was inactive.
`NCCCNCCCNCCCn1cnc2c(N)ncnc21`: the outcome in [2], in assay [3], in assay [4], in [5] and in [6] was Active.
As for `Cc1cn(CCCNCCCNCCCN)c(=O)[nH]c1=O`, the outcome in assay [7] was inactive.
`NCCCNCCCNCCCn1ccc(N)nc1=O`: in assay [8], the result was inactive.
Consider `NCCCNCCCNCCCn1cnc2c(=O)[nH]c(N)nc21`, for which the outcome in assay [9], in [1], in assay [10] and in [3] was Active. Moreover, the result in assay [4], in assay [5] and in [6] was inactive.
